# Reference: ChEMBL document CHEMBL4507319 (2021)
# Assays:
# [1] = target: SRSF protein kinase 2 (Homo sapiens) (UniProt P78362); assay: SRPK2(h) Eurofins kinase panel; settings: Compound concentration 1.0 uM
# [2] = target: Tyrosine-protein kinase Lck (Homo sapiens) (UniProt P06239); assay: Lck(h) Eurofins kinase panel; settings: Compound concentration 1.0 uM
# COLO 201 = assay: COLO 201, control cell line Proliferation assay; type: functional, Homo sapiens; settings: time 3 day
# [3] = target: Casein kinase I isoform delta (Homo sapiens) (UniProt P48730); assay: CK1delta(h) Eurofins kinase panel; settings: Compound concentration 1.0 uM
# [4] = target: T1, Serine/threonine-protein kinase Nek9 (Homo sapiens) (UniProt Q8TD19); assay: NEK9(h) Eurofins kinase panel; settings: Compound concentration 1.0 uM
# T1 sequence (whole entry): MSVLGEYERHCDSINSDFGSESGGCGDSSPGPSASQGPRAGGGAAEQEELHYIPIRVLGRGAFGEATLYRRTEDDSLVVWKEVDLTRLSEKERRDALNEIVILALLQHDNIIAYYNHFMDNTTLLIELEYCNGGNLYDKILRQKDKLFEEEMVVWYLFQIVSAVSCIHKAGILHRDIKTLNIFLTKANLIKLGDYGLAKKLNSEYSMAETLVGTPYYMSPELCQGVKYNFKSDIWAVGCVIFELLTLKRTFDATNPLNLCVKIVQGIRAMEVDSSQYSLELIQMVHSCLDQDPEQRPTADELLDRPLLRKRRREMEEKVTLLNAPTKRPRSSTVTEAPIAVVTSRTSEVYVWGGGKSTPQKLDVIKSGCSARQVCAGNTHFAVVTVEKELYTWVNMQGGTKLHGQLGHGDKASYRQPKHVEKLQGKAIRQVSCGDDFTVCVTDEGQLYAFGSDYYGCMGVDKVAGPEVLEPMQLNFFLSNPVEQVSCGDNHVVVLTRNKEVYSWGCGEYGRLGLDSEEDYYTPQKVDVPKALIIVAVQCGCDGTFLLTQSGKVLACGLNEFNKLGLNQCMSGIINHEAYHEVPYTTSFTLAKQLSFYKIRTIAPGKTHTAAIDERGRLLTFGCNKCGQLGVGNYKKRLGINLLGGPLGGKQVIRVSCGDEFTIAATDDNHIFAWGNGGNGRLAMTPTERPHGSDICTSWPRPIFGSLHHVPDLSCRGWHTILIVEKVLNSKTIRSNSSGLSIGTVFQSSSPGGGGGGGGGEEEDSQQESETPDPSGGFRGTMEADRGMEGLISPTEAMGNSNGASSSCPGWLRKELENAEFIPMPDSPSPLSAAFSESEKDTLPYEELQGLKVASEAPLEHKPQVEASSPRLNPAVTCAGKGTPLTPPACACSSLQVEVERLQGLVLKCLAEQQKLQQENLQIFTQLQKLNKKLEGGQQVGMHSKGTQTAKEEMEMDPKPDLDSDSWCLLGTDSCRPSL
# [5] = target: Vascular endothelial growth factor receptor 3 (Homo sapiens) (UniProt P35916); assay: Flt4(h) Eurofins kinase panel; settings: Compound concentration 1.0 uM
# OPM-2 = assay: OPM-2 cell line Proliferation assay; type: functional, Homo sapiens; settings: time 3 day
# [6] = target: T2, Activin receptor type-1B (Homo sapiens) (UniProt P36896); assay: ALK4(h) Eurofins kinase panel; settings: Compound concentration 1.0 uM
# T2 sequence (whole entry): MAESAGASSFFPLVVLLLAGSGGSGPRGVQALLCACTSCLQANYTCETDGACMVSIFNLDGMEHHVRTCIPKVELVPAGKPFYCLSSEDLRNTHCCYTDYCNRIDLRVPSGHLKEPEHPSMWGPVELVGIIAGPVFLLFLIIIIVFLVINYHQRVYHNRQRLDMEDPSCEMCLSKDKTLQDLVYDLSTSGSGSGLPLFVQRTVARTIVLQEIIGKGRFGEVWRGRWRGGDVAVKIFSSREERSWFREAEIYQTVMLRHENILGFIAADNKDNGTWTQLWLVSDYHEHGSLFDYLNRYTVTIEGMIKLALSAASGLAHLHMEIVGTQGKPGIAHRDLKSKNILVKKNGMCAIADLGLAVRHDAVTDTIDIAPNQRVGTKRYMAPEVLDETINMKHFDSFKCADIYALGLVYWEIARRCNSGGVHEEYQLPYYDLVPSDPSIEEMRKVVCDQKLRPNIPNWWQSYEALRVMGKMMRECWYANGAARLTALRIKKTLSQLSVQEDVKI
# [7] = target: T3, Serine/threonine-protein kinase tousled-like 1 (Homo sapiens) (UniProt Q9UKI8); assay: TLK1(h) Eurofins kinase panel; settings: Compound concentration 1.0 uM
# T3 sequence (whole entry): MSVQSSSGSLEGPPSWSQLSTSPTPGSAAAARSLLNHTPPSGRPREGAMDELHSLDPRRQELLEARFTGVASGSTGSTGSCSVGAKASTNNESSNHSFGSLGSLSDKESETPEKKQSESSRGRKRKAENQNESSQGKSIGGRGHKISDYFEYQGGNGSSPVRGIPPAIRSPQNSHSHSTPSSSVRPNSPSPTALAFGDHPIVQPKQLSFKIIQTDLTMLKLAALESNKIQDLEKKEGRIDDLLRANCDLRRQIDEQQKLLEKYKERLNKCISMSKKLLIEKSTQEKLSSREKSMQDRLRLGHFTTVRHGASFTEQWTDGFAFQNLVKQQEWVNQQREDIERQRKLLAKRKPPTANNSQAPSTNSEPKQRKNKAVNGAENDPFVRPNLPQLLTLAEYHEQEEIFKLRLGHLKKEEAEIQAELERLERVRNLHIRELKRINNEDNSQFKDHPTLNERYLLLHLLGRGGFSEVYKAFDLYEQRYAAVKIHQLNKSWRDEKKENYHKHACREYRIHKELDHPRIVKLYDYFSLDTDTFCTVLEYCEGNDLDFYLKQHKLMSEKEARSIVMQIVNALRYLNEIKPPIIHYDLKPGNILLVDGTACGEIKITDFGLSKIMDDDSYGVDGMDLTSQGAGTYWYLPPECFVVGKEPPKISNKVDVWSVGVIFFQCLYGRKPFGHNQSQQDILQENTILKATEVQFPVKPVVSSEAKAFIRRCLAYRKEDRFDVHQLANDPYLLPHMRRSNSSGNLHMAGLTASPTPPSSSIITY
# [8] = target: MAP kinase-activated protein kinase 3 (Homo sapiens) (UniProt Q16644); assay: MAPKAP-K3(h) Eurofins kinase panel; settings: Compound concentration 1.0 uM
# [9] = target: RAC-beta serine/threonine-protein kinase (Homo sapiens) (UniProt P31751); assay: PKBbeta (h) Eurofins kinase panel; settings: Compound concentration 1.0 uM
# [10] = target: Ribosomal protein S6 kinase alpha-3 (Homo sapiens, UniProt P51812); settings: Compound concentration 1.0 uM
# Sequence of Ribosomal protein S6 kinase alpha-3 (P51812 whole entry): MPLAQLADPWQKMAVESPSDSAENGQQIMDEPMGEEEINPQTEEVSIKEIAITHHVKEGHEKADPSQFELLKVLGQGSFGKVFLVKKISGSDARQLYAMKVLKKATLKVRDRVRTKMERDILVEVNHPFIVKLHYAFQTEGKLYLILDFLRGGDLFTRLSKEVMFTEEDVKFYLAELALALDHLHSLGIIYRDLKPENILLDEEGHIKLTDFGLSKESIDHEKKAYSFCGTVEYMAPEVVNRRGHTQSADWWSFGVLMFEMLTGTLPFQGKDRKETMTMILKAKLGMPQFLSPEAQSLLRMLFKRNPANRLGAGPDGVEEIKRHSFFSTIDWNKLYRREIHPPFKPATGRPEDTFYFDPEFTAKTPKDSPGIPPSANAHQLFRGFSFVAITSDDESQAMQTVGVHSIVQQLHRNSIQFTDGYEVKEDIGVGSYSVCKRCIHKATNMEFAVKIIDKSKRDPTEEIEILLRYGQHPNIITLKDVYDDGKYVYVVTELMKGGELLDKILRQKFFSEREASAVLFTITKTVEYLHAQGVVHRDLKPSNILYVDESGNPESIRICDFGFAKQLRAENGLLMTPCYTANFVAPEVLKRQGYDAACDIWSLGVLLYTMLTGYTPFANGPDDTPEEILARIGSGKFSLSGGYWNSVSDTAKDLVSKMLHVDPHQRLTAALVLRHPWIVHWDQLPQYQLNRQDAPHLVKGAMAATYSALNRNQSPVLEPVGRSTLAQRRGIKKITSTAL
# Sequence of Casein kinase I isoform delta (Homo sapiens) (P48730 whole entry, looked up, canonical isoform): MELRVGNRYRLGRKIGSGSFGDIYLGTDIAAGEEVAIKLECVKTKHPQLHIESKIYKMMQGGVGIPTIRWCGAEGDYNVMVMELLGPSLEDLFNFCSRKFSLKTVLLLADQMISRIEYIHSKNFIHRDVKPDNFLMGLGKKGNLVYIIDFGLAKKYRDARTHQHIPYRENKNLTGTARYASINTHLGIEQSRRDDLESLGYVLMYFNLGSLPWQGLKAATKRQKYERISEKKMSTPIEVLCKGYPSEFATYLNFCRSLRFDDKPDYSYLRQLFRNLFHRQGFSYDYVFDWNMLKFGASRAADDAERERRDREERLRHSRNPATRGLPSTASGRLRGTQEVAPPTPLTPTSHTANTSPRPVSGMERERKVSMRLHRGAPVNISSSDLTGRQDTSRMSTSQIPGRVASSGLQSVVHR
# Sequence of RAC-beta serine/threonine-protein kinase (Homo sapiens) (P31751 whole entry): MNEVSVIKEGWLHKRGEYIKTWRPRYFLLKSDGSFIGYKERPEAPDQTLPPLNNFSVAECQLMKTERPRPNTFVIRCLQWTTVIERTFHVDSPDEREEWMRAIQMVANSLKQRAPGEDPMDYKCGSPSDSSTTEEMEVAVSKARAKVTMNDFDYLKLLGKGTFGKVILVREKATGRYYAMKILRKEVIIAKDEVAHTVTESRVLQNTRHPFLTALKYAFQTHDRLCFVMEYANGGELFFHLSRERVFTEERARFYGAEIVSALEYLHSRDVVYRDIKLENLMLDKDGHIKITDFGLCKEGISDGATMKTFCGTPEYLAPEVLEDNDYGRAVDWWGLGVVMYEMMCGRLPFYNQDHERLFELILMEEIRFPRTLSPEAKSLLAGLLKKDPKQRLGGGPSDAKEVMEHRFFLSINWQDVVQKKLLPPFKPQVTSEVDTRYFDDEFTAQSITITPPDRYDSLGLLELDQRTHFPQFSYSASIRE
# Sequence of SRSF protein kinase 2 (Homo sapiens) (P78362 whole entry, looked up): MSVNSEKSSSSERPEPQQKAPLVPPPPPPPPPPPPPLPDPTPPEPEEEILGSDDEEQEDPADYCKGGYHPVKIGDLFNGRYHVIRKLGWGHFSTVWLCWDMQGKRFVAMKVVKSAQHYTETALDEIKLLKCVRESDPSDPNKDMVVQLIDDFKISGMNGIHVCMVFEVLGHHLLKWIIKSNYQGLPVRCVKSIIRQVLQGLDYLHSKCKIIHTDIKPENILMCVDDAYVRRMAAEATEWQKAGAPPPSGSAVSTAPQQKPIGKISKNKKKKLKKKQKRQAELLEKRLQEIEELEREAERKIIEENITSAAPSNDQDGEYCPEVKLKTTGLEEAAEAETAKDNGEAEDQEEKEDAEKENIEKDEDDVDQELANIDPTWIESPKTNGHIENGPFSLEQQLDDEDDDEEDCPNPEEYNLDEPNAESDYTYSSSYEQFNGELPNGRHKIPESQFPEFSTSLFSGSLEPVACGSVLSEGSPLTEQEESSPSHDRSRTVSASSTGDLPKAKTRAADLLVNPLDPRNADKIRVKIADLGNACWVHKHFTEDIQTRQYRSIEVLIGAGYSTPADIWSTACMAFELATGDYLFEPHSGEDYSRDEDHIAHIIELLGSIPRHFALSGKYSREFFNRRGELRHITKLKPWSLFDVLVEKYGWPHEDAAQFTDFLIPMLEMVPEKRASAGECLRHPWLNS
# Sequence of Tyrosine-protein kinase Lck (Homo sapiens) (P06239 2-509 limits assumed): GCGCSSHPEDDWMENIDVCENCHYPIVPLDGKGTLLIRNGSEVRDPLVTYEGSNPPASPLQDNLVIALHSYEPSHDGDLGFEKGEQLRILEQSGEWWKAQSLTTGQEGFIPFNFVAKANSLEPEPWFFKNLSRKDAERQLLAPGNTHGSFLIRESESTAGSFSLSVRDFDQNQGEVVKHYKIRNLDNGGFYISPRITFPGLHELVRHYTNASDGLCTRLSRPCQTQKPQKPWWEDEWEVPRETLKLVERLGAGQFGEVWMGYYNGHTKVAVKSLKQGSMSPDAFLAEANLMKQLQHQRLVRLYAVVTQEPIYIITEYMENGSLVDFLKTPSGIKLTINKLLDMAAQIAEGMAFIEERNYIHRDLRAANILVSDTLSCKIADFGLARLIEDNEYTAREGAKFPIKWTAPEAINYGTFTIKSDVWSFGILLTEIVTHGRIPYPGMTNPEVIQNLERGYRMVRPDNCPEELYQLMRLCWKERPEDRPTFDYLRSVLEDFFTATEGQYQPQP
# Sequence of MAP kinase-activated protein kinase 3 (Homo sapiens) (Q16644 whole entry, looked up): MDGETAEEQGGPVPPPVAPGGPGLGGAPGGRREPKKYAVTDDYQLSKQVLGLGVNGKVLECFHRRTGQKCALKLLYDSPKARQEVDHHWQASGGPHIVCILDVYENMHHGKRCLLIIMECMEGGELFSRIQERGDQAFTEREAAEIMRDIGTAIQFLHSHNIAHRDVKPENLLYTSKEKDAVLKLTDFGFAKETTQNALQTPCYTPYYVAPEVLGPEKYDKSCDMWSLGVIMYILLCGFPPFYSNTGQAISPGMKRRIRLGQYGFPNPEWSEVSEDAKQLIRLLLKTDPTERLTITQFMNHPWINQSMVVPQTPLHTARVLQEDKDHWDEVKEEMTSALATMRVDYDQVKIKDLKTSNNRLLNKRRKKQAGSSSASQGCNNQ
# Sequence of Vascular endothelial growth factor receptor 3 (Homo sapiens) (P35916 whole entry): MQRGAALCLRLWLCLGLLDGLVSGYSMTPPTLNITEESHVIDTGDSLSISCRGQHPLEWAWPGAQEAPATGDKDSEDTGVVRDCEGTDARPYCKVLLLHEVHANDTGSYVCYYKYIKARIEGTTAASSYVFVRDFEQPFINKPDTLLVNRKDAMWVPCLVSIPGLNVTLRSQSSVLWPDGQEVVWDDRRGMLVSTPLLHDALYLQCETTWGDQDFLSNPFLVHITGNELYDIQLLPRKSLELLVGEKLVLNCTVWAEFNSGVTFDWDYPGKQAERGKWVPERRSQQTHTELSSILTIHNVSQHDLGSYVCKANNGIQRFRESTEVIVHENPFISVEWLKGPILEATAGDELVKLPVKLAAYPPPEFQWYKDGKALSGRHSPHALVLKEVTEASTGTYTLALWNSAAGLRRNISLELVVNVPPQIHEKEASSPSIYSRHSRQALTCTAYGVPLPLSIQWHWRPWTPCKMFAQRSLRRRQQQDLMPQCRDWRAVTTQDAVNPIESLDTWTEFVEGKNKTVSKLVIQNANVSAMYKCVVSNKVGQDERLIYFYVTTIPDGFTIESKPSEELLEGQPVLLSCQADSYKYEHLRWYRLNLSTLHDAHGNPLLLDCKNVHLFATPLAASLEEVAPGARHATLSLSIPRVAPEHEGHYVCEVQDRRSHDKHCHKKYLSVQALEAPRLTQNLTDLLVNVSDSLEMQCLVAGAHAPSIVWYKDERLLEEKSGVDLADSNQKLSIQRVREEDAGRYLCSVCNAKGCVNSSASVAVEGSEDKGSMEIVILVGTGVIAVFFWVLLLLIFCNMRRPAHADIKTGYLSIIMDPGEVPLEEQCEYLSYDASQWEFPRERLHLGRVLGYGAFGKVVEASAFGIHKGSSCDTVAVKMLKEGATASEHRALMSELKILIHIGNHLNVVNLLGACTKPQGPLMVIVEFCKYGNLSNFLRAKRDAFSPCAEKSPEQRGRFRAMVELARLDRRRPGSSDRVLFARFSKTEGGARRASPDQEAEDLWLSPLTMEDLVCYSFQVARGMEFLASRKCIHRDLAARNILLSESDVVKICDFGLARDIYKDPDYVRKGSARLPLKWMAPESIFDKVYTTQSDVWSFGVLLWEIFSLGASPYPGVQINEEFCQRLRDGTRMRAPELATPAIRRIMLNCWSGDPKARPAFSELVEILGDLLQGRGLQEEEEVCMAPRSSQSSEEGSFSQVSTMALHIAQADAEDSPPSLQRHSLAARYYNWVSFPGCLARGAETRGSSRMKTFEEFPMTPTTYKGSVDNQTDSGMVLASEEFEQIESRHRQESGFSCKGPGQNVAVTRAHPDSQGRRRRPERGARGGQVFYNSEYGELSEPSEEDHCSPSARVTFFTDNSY
smiles,measurement,setting,value
CCc1ccccc1C(=O)Nc1n[nH]c2c(C)c(F)c(C3C(C#N)=C(C)N(C)C(C)=C3C#N)cc12 [BAY-3827],% residual kinase activity,[1],83%
same,% residual kinase activity,[2],93%
same,Cell Proliferation IC50,COLO 201,16 µM
same,% residual kinase activity,[3],94%
same,% residual kinase activity,[4],47%
same,% residual kinase activity,[5],73%
same,Cell Proliferation IC50,OPM-2,1.5 µM
same,% residual kinase activity,[6],90%
same,% residual kinase activity,[7],103%
same,% residual kinase activity,[8],106%
same,% residual kinase activity,[9],105%
same,% residual kinase activity,[10],0%
